Converted amounts (≈) assume the structure as drawn.
What was measured:
[1] = test system: S. aureus 25923 HS; assay: MIC, standard panel of Gram-positive and Gram-negative strains (Example 2); type: cell-based; conditions: Staphylococcus aureus, read-out: MIC S. aureus 25923 HS
[2] = test system: E. coli 25922; assay: as above; type: cell-based; conditions: Escherichia coli
[3] = test system: P. aeruginosa 27853; assay: as above; type: cell-based; conditions: Pseudomonas aeruginosa
[4] = test system: S. epidermis 12228; assay: as above; type: cell-based, Staphylococcus epidermis; conditions: Staphylococcus
[5] = test system: S. aureus 25923; assay: as above; type: cell-based; conditions: Staphylococcus aureus
[6] = test system: E. coli IMP; assay: microbe, parasite or virus in culture; conditions: Escherichia coli, read-out: MIC E. coli IMP
[7] = test system: A. baumannii A401; assay: MIC determination for Acinetobacter strains (Example 3); type: cell-based, Acinetobacter baumannii; conditions: LEV R, CIP R, AMK R, TET R
[8] = test system: A. baumannii J2; assay: as above; type: cell-based, Acinetobacter baumannii; conditions: LEV R, CIP R
[9] = test system: A. baumannii A472; assay: as above; type: cell-based, Acinetobacter baumannii; conditions: LEV R, CIP R, MRP I, IMP I, AMK R, TET R
[10] = test system: A. baumannii ATCC 19606; assay: as above; type: cell-based, Acinetobacter baumannii; conditions: reference strain
[11] = test system: A. baumannii A387; assay: as above; type: cell-based, Acinetobacter baumannii; conditions: LEV I, CIP R, IPM R, AMK R, TET R
[12] = test system: Acinetobacter spp. H064200250; assay: as above; type: cell-based, Acinetobacter sp.; conditions: LEV R, CIP R, MRP R, IMP I
[13] = test system: A. baumannii A329; assay: as above; type: cell-based, Acinetobacter baumannii; conditions: LEV R, CIP R, MRP R, IMP R, AMK R, TET R
[14] = test system: A. baumannii A489; assay: as above; type: cell-based, Acinetobacter baumannii; conditions: LEV R, CIP R, MRP R, IMP R, AMK R, TET R
[15] = test system: A. baumannii A390; assay: as above; type: cell-based, Acinetobacter baumannii; conditions: LEV R, CIP R, MRP R, IPM I, AMK R, TET I
[16] = test system: A. baumannii A473; assay: as above; type: cell-based, Acinetobacter baumannii; conditions: LEV R, CIP R, MRP R, IMP R, AMK R, TET R
[17] = test system: S. aureus ATCC 25923; assay: MIC, selected panel of bacterial strains (Example 5); type: cell-based, Staphylococcus aureus; conditions: Staphylococcus aureus, ATCC25923; read-out: MICs against Gram positive bacteria S. aureus ATCC 25923
[18] = test system: S. pneumoniae 1027; assay: MIC, panel of quinolone-resistant strains (Example 2); type: cell-based; conditions: Streptococcus pneumoniae, LEV R
[19] = test system: GN10 Pseudomonas aeruginosa; assay: Pre-chequerboard MIC for synergy study (Example 6); type: cell-based; conditions: ATCC 27853, antibiotic susceptible
Source text: (§1) A chequerboard technique was used to identify possible synergistic or antagonistic interactions between the 4-oxoquinolizines compounds, levofloxacin and polymyxin B. Levofloxacin was included as a control. […] Final dilutions were made in Mueller-Hinton broth, the specific test medium used for MIC determinations according to CLSI guidelines (CLSI. Methods for Dilution Antimicrobial Susceptibility Tests for Bacteria That Grow Aerobically; Approved Standard-Eighth Edition (2009). CLSI Document M07-A8. CLSI, Wayne, Pa. 19087-1898, USA.). The test medium used was a cation-adjusted Mueller-Hinton Broth II (Becton Dickinson UK Ltd., Oxford Science Park, Oxford, UK, OX4 4DQ).
(§2) The compounds 2, 33 and 35, as well as levofloxacin were tested in combination with polymyxin B on the following isolates: GN31 Acinetobacter baumannii—antibiotic susceptible clinical isolate, GN52 Acinetobacter baumannii—levofloxacin resistant clinical isolate, GN56 Acinetobacter baumannii—levofloxacin resistant clinical isolate, GN48 Klebsiella pneumoniae—NCTC 13443—NDM-1-metallo-β-lactamase and GN10 Pseudomonas aeruginosa—ATCC 27853—antibiotic susceptible reference isolate. All isolates are from the collection maintained at Quotient Bioresearch Ltd., Cambridge, UK.
(§3) The MIC values for the compounds and polymyxin B and levofloxacin were determined by broth microdilution following CLSI guidelines, and the MICs of agents in combination were determined as described by Pillai et. al (Pillai S K, Moellering R C Jr, Eliopoulis G M; Antimicrobial Combinations in Antibiotics in Laboratory Medicine 5th Edition (V. Lorian Ed) (2005) p 365-440). Initial MIC results were used to determine the microtiter plate patterns for the chequerboards. A suitable doubling dilution concentration range was selected such that the combination antibiotic range was at least two concentrations above and four concentrations below the MIC for each isolate. A fixed range of 0.008 to 8 mg/L was tested for polymyxin B except in the case of A. baumannii GN31 where a range of 0.004 to 4 mg/L was tested when in combination with the compounds 2, 33 and 35 as well as levofloxacin.

[20] = test system: GN48 Klebsiella pneumoniae; assay: Pre-chequerboard MIC for synergy study (Example 6); type: cell-based; conditions: NCTC 13443, NDM-1
Source text: as §1, §2, §3

[21] = test system: GN31 Acinetobacter baumannii; assay: Pre-chequerboard MIC for synergy study (Example 6); type: cell-based; conditions: antibiotic susceptible clinical isolate
Source text: as §1, §2, §3

[22] = test system: GN52 Acinetobacter baumannii; assay: Pre-chequerboard MIC for synergy study (Example 6); type: cell-based; conditions: levofloxacin resistant clinical isolate
Source text: as §1, §2, §3

[23] = test system: GN56 Acinetobacter baumannii; assay: Pre-chequerboard MIC for synergy study (Example 6); type: cell-based; conditions: levofloxacin resistant clinical isolate
Source text: as §1, §2, §3

Cc1c(-c2ccc(N)cc2)ccn2c(=O)c(C(=O)O)cc(C3CC3)c12 [Compound 8, 8-(4-amino-phenyl)-1-cyclopropyl-9-methyl-4-oxo-quinolizine-3-carboxylic acid]
MIC [1]: 0.25 µg/mL (≈ 0.748 µM)
MIC [2]: 0.03 µg/mL (≈ 0.0897 µM)

Cc1c(-c2ccc(CN)cc2)ccn2c(=O)c(C(=O)O)cc(C3CC3)c12 [Compound 5, 8-(4-aminomethyl-phenyl)-1-cyclopropyl-9-methyl-4-oxo-quinolizine-3-carboxylic acid]
MIC [1]: 0.125 µg/mL (≈ 0.359 µM)
MIC [3]: 0.5 µg/mL (≈ 1.44 µM)
MIC [4]: 0.06 µg/mL (≈ 0.172 µM)
MIC [5]: 0.03 µg/mL (≈ 0.0861 µM)

Cc1c(-c2ccc(N)cc2)c(F)cn2c(=O)c(C(=O)O)cc(C3CC3)c12 [Compound 7, 8-(4-amino-phenyl)-1-cyclopropyl-7-fluoro-9-methyl-4-oxo-quinolizine-3-carboxylic acid]
MIC [2]: 0.03 µg/mL (≈ 0.0851 µM)

Cc1c(-c2ccc(CN)cc2)c(F)cn2c(=O)c(C(=O)O)cc(C3CC3)c12 [Compound 6, 8-(4-aminomethyl-phenyl)-1-cyclopropyl-7-fluoro-9-methyl-4-oxo-quinolizine-3-carboxylic acid]
MIC [1]: 0.25 µg/mL (≈ 0.682 µM)
MIC [6]: 0.03 µg/mL (≈ 0.0819 µM)
MIC [4]: 0.03 µg/mL (≈ 0.0819 µM)
MIC [5]: 0.03 µg/mL (≈ 0.0819 µM)

Imipenem/cilastatin
MIC A baumannii A401 [7]: 32 µg/mL
MIC A. baumannii J2 [8]: 4 µg/mL
MIC A. baumannii A472 [9]: 16 µg/mL
MIC A. baumannii ATCC 19606 [10]: 2 µg/mL
MIC A. baumannii A387 [11]: 16 µg/mL
MIC Acinetobacter spp. H064200250 [12]: 16 µg/mL
MIC A. baumannii A329 [13]: 128 µg/mL
MIC A. baumannii A489 [14]: 128 µg/mL
MIC A. baumannii A390 [15]: 16 µg/mL
MIC A. baumannii A473 [16]: 32 µg/mL

C[C@H]1COc2c(N3CCN(C)CC3)c(F)cc3c(=O)c(C(=O)O)cn1c23 [Levofloxacin, reference compound]
MIC [17]: 0.125 µg/mL (≈ 0.346 µM)

Cc1c(-c2cc(F)c(N)cc2F)ccn2c(=O)c(C(=O)O)cc(C3CC3)c12 [Compound 2, 8-(4-amino-2,5-difluorophenyl)-1-cyclopropyl-9-methyl-4-oxo-4H-quinolizine-3-carboxylic acid]
MIC [1]: 0.125 µg/mL (≈ 0.338 µM)
MIC [18]: 0.5 µg/mL (≈ 1.35 µM)

Cc1c(-c2ccc(CN)c(F)c2)ccn2c(=O)c(C(=O)O)cc(C3CC3)c12 [Compound 4, 8-(3-fluoro-4-aminomethyl-phenyl)-1-cyclopropyl-9-methyl-4-oxo-quinolizine-3-carboxylic acid]
MIC [1]: 0.125 µg/mL (≈ 0.341 µM)
MIC [3]: 0.5 µg/mL (≈ 1.36 µM)
MIC [4]: 0.06 µg/mL (≈ 0.164 µM)
MIC [5]: 0.06 µg/mL (≈ 0.164 µM)

Cc1c(-c2cc(Cl)c(N)c(Cl)c2)ccn2c(=O)c(C(=O)O)cc(C3CC3)c12 [Compound 3, 8-(3,5-dichloro-4-amino-phenyl)-1-cyclopropyl-9-methyl-4-oxo-quinolizine-3-carboxylic acid]
MIC [6]: 0.06 µg/mL (≈ 0.149 µM)
MIC [4]: 0.008 µg/mL (≈ 0.0198 µM)

Polymyxin B [reference compound]
Pre-chequerboard MIC GN10 Pseudomonas aeruginosa [19]: 1 µg/mL
Pre-chequerboard MIC GN48 Klebsiella pneumoniae [20]: 1 µg/mL
Pre-chequerboard MIC GN31 Acinetobacter baumannii [21]: 0.5 µg/mL
Pre-chequerboard MIC GN52 Acinetobacter baumannii [22]: 0.5 µg/mL
Pre-chequerboard MIC GN56 Acinetobacter baumannii [23]: 0.5 µg/mL

— patent US20190105367A1, “ANTIMICROBIAL 4-OXOQUINOLIZINES” (Emergent Product Development Gaithersburg Inc., priority 2011, published 2019)
